Remaining binding data for one compound are collected here from patent US20250312462A1, “PAK1 DEGRADERS AND METHODS OF USE THEREOF” (INSTITUTE FOR CANCER RESEARCH D/B/A THE RESEARCH INSTITUTE …, priority 2022, published 2025).

Some targets named below: EPHA5 (Homo sapiens, UniProt P54756); FGR (Homo sapiens, UniProt P09769); PIK3CA(E545K) (Homo sapiens, UniProt P42336, E545K); VEGFR2 (Homo sapiens, UniProt P35968); KIT(V559D, V654A) (Homo sapiens, UniProt P10721, V559D/V654A); GSK3B (Homo sapiens, UniProt P49841); GRK1 (Homo sapiens, UniProt Q15835); CLK3 (Homo sapiens, UniProt P49761); EGFR(T790M) (Homo sapiens, UniProt P00533, T790M); PKAC-beta (Homo sapiens, UniProt P22694); BIKE (Homo sapiens, UniProt Q9NSY1); NIM1 (Homo sapiens, UniProt Q8IY84); EGFR(L858R, T790M) (Homo sapiens, UniProt P00533, L858R/T790M); RIPK5 (Homo sapiens, UniProt Q6XUX3); ERK8 (Homo sapiens, UniProt Q8TD08).

Common to all, as to assay: KINOMEscan
Holding throughout (conditions): read-out: Percent Control

Assay [1] deals with RSK1(Kin.Dom.2-C-terminal) (Homo sapiens, UniProt Q15418).
Experimental: (§1) The kinase engagement assay (KINOMEscan®) was performed by DiscoverX assessing binding abilities toward a set of kinases.
Assay [2] deals with JAK3(JH1domain-catalytic) (Homo sapiens, UniProt P52333).
Experimental: as §1
Assay [3] addresses ABL1(E255K)-phosphorylated (Homo sapiens, UniProt P00519, E255K).
Experimental: as §1

Chain of CLK3 (P49761 whole entry): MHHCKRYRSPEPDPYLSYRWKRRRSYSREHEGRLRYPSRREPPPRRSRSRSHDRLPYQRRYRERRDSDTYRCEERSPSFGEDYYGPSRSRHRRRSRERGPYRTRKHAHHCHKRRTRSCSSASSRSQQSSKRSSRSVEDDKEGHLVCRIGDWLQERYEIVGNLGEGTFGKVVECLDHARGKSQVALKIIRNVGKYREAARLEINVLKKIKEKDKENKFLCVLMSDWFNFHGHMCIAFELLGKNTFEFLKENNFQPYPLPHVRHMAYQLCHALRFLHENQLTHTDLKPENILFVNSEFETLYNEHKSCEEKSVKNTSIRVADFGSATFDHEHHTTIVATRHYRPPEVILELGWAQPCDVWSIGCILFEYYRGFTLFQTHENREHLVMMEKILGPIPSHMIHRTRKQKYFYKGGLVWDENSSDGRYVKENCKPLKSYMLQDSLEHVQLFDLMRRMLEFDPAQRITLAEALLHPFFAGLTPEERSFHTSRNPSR
Chain of KIT(V559D, V654A) (P10721 26-976 V559D/V654A): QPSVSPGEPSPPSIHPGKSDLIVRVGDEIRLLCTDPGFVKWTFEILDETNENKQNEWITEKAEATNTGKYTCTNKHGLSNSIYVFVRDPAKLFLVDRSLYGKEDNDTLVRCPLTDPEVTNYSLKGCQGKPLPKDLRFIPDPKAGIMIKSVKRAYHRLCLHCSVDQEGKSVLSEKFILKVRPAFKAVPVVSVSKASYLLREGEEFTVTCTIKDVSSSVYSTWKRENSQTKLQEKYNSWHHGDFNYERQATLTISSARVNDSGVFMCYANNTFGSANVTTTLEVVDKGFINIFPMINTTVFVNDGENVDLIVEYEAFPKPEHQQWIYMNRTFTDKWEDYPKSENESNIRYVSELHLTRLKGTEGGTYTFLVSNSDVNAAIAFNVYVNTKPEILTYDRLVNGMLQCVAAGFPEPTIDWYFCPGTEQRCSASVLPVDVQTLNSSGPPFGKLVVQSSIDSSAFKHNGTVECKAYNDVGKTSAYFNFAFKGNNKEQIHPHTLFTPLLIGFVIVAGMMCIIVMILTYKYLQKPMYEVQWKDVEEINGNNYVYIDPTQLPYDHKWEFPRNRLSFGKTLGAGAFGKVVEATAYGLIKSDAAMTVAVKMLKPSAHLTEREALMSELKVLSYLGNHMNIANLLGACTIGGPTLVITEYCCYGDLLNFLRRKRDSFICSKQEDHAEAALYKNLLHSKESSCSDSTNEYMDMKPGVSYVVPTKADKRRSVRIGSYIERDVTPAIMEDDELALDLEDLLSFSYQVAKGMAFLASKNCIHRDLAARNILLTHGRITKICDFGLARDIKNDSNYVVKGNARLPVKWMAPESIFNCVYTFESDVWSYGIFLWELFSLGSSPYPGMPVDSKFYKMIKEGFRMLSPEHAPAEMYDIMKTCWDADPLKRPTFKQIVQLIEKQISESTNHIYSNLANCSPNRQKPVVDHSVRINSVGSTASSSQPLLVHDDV
Chain of FGR (P09769 whole entry): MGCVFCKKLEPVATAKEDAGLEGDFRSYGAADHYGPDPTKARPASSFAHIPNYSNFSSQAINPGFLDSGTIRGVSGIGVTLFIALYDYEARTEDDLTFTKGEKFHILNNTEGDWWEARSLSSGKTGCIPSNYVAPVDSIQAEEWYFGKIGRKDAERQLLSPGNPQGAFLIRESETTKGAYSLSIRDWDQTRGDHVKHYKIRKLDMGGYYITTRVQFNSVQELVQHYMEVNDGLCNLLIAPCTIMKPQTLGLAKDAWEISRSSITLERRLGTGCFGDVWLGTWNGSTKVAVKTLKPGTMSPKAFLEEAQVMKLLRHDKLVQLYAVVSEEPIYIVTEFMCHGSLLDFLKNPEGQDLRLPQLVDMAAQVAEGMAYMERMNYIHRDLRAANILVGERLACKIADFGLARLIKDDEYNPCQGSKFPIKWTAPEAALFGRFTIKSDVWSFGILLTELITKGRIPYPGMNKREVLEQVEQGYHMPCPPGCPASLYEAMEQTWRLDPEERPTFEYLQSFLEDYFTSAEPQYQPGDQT
Chain of ERK8 (Q8TD08 whole entry): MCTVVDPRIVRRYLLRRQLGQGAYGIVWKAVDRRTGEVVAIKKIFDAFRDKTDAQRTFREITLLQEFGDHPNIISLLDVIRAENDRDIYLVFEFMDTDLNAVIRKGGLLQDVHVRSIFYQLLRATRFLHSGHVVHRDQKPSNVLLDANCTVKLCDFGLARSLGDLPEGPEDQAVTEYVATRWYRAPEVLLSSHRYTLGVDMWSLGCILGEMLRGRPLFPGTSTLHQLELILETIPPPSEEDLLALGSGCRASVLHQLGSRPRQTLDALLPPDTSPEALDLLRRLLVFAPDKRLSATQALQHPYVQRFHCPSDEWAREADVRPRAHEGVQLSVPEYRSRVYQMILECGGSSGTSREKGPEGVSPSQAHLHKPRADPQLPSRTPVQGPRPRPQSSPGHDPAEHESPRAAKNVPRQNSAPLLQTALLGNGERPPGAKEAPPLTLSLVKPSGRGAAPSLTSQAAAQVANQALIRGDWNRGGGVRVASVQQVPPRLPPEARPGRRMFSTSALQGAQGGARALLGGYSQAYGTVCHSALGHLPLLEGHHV
Chain of JAK3(JH1domain-catalytic) (P52333 822-1111 limits assumed): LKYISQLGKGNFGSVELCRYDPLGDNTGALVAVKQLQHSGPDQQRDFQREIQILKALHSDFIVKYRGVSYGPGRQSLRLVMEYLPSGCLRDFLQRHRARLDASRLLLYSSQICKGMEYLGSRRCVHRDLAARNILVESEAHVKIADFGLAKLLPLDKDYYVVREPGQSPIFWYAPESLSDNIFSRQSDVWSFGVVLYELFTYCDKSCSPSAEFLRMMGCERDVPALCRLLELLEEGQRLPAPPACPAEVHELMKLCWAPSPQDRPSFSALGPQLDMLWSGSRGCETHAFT
Chain of PIK3CA(E545K) (P42336 whole entry E545K): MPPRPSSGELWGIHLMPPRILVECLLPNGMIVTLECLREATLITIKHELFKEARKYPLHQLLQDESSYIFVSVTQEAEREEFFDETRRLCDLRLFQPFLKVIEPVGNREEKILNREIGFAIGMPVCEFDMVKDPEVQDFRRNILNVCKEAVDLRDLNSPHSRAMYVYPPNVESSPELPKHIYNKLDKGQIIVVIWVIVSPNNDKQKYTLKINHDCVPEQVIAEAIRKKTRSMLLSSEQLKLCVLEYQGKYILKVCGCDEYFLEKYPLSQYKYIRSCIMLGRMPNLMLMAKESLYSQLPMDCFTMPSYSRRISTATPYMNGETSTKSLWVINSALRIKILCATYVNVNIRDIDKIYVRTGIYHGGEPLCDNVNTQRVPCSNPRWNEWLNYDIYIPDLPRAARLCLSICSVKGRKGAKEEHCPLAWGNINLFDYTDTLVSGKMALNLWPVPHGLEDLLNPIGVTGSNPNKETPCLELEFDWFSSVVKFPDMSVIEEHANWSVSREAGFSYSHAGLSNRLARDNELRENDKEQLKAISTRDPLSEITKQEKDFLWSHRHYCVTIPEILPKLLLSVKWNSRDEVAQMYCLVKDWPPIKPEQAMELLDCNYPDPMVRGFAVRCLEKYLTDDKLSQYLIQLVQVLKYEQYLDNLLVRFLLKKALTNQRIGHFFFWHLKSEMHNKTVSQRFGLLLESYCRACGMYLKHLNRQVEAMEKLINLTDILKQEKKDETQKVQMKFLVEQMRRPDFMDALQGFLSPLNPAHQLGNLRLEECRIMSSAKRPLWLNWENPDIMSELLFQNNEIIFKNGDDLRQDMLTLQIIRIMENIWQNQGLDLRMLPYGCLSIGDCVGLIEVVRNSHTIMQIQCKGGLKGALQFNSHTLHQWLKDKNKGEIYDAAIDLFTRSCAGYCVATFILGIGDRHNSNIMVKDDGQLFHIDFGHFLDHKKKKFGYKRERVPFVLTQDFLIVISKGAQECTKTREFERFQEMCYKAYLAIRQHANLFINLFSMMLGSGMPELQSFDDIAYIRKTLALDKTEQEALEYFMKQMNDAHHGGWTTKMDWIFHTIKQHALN
Chain of EGFR(L858R, T790M) (P00533 25-1210 T790M/L858R): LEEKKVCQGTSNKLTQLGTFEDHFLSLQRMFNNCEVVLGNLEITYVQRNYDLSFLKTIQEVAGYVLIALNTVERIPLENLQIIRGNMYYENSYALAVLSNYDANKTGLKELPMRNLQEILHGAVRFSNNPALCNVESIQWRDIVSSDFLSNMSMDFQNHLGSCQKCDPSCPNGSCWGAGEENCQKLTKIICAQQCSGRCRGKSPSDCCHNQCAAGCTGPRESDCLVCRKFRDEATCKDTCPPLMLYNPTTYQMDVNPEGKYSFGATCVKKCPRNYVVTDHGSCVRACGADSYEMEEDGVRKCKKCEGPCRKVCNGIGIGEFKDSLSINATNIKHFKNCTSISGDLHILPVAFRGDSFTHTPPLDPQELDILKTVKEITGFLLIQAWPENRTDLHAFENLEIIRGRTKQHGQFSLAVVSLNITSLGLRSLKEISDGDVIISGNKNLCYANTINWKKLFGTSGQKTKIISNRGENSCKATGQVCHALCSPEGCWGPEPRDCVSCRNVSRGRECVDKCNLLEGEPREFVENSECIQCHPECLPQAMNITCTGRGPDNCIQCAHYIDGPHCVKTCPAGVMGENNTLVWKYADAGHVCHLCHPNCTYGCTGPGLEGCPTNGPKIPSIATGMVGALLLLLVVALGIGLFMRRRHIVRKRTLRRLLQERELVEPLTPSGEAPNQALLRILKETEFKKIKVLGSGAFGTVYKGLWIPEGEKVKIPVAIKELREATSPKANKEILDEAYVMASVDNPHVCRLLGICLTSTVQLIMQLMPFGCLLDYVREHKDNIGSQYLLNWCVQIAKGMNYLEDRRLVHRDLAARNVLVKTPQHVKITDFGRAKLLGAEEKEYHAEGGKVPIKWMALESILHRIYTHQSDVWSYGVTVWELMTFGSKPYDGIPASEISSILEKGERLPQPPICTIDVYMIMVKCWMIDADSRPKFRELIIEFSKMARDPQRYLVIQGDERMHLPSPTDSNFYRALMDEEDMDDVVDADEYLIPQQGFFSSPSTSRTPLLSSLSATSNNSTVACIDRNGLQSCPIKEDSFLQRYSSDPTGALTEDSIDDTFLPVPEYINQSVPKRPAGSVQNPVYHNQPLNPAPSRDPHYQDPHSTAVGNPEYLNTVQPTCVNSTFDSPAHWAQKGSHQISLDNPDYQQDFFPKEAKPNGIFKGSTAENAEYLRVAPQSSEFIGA
Experimental for BIKE: as §1
Experimental for CLK3: as §1
Experimental for EGFR(L858R, T790M): as §1
Experimental for EGFR(T790M): as §1
Experimental for EPHA5: as §1
Experimental for ERK8: as §1
Experimental for FGR: as §1
Experimental for GRK1: as §1
Experimental for GSK3B: as §1
Experimental for KIT(V559D, V654A): as §1
Experimental for NIM1: as §1
Experimental for PIK3CA(E545K): as §1
Experimental for PKAC-beta: as §1
Experimental for RIPK5: as §1
Experimental for VEGFR2: as §1

For `O=C1CCC(N2C(=O)c3cccc(NCCCCCCCCNC(=O)N4CC[C@H](NC5=Nc6cc(F)ccc6N(CC(F)F)c6ccc(Cl)cc65)C4)c3C2=O)C(=O)N1` (stereo partly drawn) [BJG-05-039, (3S)-3-((2-Chloro-5-(2,2-difluoroethyl)-8-fluoro-5H-dibenzo[b,e][1,4]diazepin-11-yl)amino)-N-(8-((2-(2,6-dioxopiperidin-3-yl)-1,3-dioxoisoindolin-4-yl)amino)octyl)pyrrolidine-1-carboxamide], the remaining binding at 10 µM amounted to 99% on EPHA5; 82% at FGR; 100% on PIK3CA(E545K); 48% in [1]; 100% on VEGFR2; 63% at KIT(V559D, V654A). Moreover, the remaining binding at 10 µM at GSK3B came out at 90%; on GRK1, 89%; in [2], 97%; on CLK3, 62%; at EGFR(T790M), 97%; at PKAC-beta it was 62%. Further, the remaining binding at 10 µM on BIKE was 74%; at NIM1 it was 89%; on EGFR(L858R, T790M), 86%; at RIPK5, 87%; in [3], 100%; on ERK8, 63%.
